Values quoted from earlier work in the PKSmart pharmacokinetics tables (Seal et al. 2025).

Experiment: Lombardo, Berellini, Obach 2018, Drug Metab Dispos 46:1466, doi 10.1124/dmd.118.082966
Details: human; for MRT / Vd / clearance / half-life: in vivo, iv; for fraction unbound: plasma

SMILES | MRT [h] | Vd [L/kg] | clearance [mL/min/kg] | half-life [h] | fraction unbound
O=C(O)C[C@H](O)C[C@H](O)/C=C/c1c(C2CC2)nc2ccccc2c1-c1ccc(F)cc1 | 2.7 | 0.9 | 5.85 | 4.6 | 0.005
COc1cc(Cc2cnc(N)nc2N)c2cc(Cc3c(C(=O)N(C)C)[nH]c4ccc(Cl)cc34)oc2c1OC | 11.3 | 5.06 | 7.49 | 44.5 | –
CCOC(=O)C1(c2ccccc2)CCN(CCC(O)c2ccccc2)CC1 (stereo not given) | 4.32 | 5.7 | 22 | 3.22 | –
CON=C(C(=O)NC1C(=O)N2C(C(=O)O)=C(C)CS[C@H]12)c1csc(N)n1 (stereo not given in full) | 2.5 | 0.28 | 1.9 | 2.1 | 0.78
CSCO[C@H]1C[C@H]2OC[C@@]2(OC(C)=O)[C@H]2[C@H](OC(=O)c3ccccc3)[C@]3(O)C[C@H](OC(=O)C(O)C(NC(=O)c4ccccc4)c4ccccc4)C(C)=C(C(OC(C)=O)C(=O)[C@]12C)C3(C)C (stereo not given in full) | 29 | 11 | 6.4 | 32 | –
Cc1ccc([C@@H]2O[C@H](CO)[C@@H](O)[C@H](O)[C@H]2O)cc1Cc1ccc(-c2ccc(F)cc2)s1 | 7.25 | 1.19 | 2.74 | 10.3 | 0.01
C[C@@H](N/C(=N\c1ccncc1)NC#N)C(C)(C)C | 3.2 | 1.1 | 5.68 | 2.5 | 0.6
CN(C)CCCN1c2ccccc2CCc2ccccc21 | – | – | – | – | 0.075
C=CCC1(C(C)C#CCC)C(=O)NC(=O)N(C)C1=O (stereo not given) | 1.5 | 1.1 | 12 | 1.6 | 0.27
CC(C)(C)NCC(O)COc1cccc2c1CC(O)C(O)C2 (stereo not given) | 11 | 1.9 | 2.9 | 9.2 | 0.14
CO[C@@H]1C[C@@](C)(O)Cc2cc3c(c(O)c21)C(=O)c1c(O)cc2c(c1C3=O)O[C@@H]1O[C@]2(C)[C@@H](O)[C@@H](N(C)C)[C@@H]1O | 13.1 | 9.14 | 11.6 | 13.2 | –
CCCOC(C(=O)OC1CCN(C)CC1)(c1ccccc1)c1ccccc1 | 15.4 | 2.73 | 2.94 | 15.2 | 0.1
CCc1[nH]c(=O)[nH]c1C(=O)c1ccncc1 | 1.2 | 0.65 | 9.03 | 1.32 | –
COc1cc([C@@H]2c3cc4c(cc3[C@@H](O[C@@H]3O[C@@H]5CO[C@@H](c6cccs6)O[C@H]5[C@H](O)[C@H]3O)[C@H]3COC(=O)C23)OCO4)cc(OC)c1O (stereo not given in full) | 37 | 0.41 | 0.19 | 16 | 0.0044
N/N=c1\[nH]ncc2ccccc12 | 0.29 | 1.5 | 85 | 1 | 0.12
CCCCCCCCCCCCCCC[C@@H](O)[C@H](C)N | 8.89 | 30.7 | 57.6 | 29.7 | –
COc1ccc(-n2nc(C(N)=O)c3c2C(=O)N(c2ccc(N4CCCCC4=O)cc2)CC3)cc1 | – | 0.3 | 0.8 | 12 | –
CC(=O)Nc1ccc(OC[C@H](O)CNC(C)C)cc1 | – | – | 2.28 | 12.2 | 0.93
CCCn1c(=O)c2[nH]c(C34CC5CC(CC3C5)C4)nc2n(CCC)c1=O | 14.1 | 4.3 | 5 | 18.1 | –
CCN1CCC[C@@H]1CNC(=O)c1cc(S(N)(=O)=O)ccc1OC | 8.01 | 0.94 | 1.9 | 6.5 | –
CO[C@@H]1[C@@H](O[C@@H]2O[C@H](C)[C@@H](O[C@H]3C[C@@](C)(O)[C@@H](O)[C@H](C)O3)[C@H](N(C)C)[C@H]2O)[C@@H](CC=O)C[C@@H](C)[C@@H](O[C@H]2CC[C@@H](N(C)C)[C@H](C)O2)C=CC=CC[C@@H](C)OC(=O)C[C@H]1O | 7 | – | 12.8 | 5.2 | 0.26
CCCCc1nc(Cl)c(CO)n1Cc1ccc(-c2ccccc2-c2nnn[nH]2)cc1 | 0.75 | 0.37 | 8.2 | 1.8 | –

SMILES | MRT [h] | Vd [L/kg] | clearance [mL/min/kg] | half-life [h] | fraction unbound
COc1ccccc1Oc1c(NS(=O)(=O)c2ccc(C)cn2)nc(-c2ccnc(-c3nnn[nH]3)c2)nc1OCCO | 0.4 | 0.23 | 10.5 | 2.6 | 0.02
OC[C@H]1O[C@@H]2O[C@H]3[C@H](O)[C@@H](O)[C@@H](O[C@H]4[C@H](O)[C@@H](O)[C@@H](O[C@H]5[C@H](O)[C@@H](O)[C@@H](O[C@H]6[C@H](O)[C@@H](O)[C@@H](O[C@H]7[C@H](O)[C@@H](O)[C@@H](O[C@H]8[C@H](O)[C@@H](O)[C@@H](O[C@H]1[C@H](O)[C@H]2O)O[C@@H]8CO)O[C@@H]7CO)O[C@@H]6CO)O[C@@H]5CO)O[C@@H]4CO)O[C@@H]3CO | 1.9 | 0.21 | 1.8 | 1.6 | –
CCOC(=O)N[C@@H]1CC[C@@H]2[C@H](CC3C(=O)O[C@H](C)[C@H]3[C@H]2/C=C/c2ccc(-c3cccc(F)c3)cn2)C1 (stereo not given in full) | 183 | 3.74 | 0.34 | 149 | 0.01
COc1cc2ncnc(Nc3ccc(F)c(Cl)c3)c2cc1OCCCN1CCOCC1 | 32 | 23 | – | 34 | –
CC(CN1CCN(CCOCCO)CC1)CN1c2ccccc2Sc2ccccc21 (stereo not given) | 4.16 | 4.06 | 16.3 | 3.11 | –
CCOC(=O)Nc1ccc(NCc2ccc(F)cc2)cc1N | 5 | 2.5 | 8.3 | 9 | 0.2
C[C@@H]([C@@H](O)c1ccc(O)cc1)N1CCC(O)(c2ccccc2)CC1 | 2.6 | 4.4 | 27 | 3.7 | 0.63
CCOc1ccc(Cc2cc(C3O[C@H](CO)[C@@H](O)[C@H](O)[C@H]3O)ccc2Cl)cc1 (stereo not given in full) | 9.5 | 1.7 | 3 | 12.2 | 0.09
C[N+](C)(C)NCCC(=O)[O-] | 4.3 | 0.7 | 2.8 | 6.2 | –
COc1cc2c(N)nc(N3CCN(C(=O)OCC(C)(C)O)CC3)nc2c(OC)c1OC | 3.1 | 0.18 | 0.96 | 3.1 | –
COC1C(=O)C(C)C[C@H](C)/C=C/C=C/C=C(\C)[C@@H](OC)C[C@@H]2CC[C@@H](C)[C@@](O)(O2)C(=O)C(=O)N2CCCCC2C(=O)O[C@H]([C@H](C)C[C@@H]2CC[C@H](n3cnnn3)[C@H](OC)C2)CC(=O)C(C)=CC(C)[C@H]1O (stereo not given in full) | 33 | 1.3 | 0.67 | 35 | 0.26
CN(C(=O)CO)c1c(I)c(C(=O)NC[C@H](O)CO)c(I)c(C(=O)NC[C@H](O)CO)c1I | 2.7 | 0.23 | 1.4 | 2.3 | 1
CN[C@@H]1[C@@H](O)[C@@H](O[C@@H]2[C@@H](O)[C@H](O[C@H]3OC(CNCCO)=CC[C@H]3N)[C@@H](N)C[C@H]2NC(=O)C(O)CCN)OC[C@]1(C)O (stereo not given in full) | 3.2 | 0.22 | 1.14 | 3.4 | 0.84
COCCN1CCN(Cc2ccc(-c3n[nH]c4c3C(=O)c3c(NC(=O)NN5CCOCC5)cccc3-4)cc2)CC1 | 8.5 | 5.9 | 11.5 | 9.9 | –
O=C1CN=C(c2ccccc2)c2cc([N+](=O)[O-])ccc2N1 | 33 | 1.7 | 0.86 | 26 | –
CN(C)c1cc(CNCC(C)(C)C)c(O)c2c1C[C@H]1C[C@H]3[C@H](N(C)C)C(O)=C(C(N)=O)C(=O)[C@@]3(O)C(O)=C1C2=O | 19.2 | 2.7 | 2.34 | 15 | –
CCCc1nc2c(C)cc(-c3nc4ccccc4n3C)cc2n1Cc1ccc(-c2ccccc2C(=O)O)cc1 | 11 | 5.3 | 8.4 | 20 | –
O=C(O)C(Cl)Cl | 0.6 | 0.19 | 5.3 | 0.65 | –
COC(=O)c1cnc2n1CCc1ccccc1C2=C1CCN(CCc2ccc(OCc3ccc4ccccc4n3)cc2)CC1 | 7.1 | 6.03 | 14.1 | 10.6 | 0.001
Nc1nc(F)nc2c1ncn2[C@@H]1O[C@H](CO)[C@@H](O)[C@@H]1O | 12 | 2.2 | 3.2 | 11 | 0.76
CN(C)CCCN1c2ccccc2Sc2ccc(Cl)cc21 | 10 | 10 | 16 | 11 | –
O=C(O[C@H]1CN2CCC1CC2)N1CCc2ccccc2[C@@H]1c1ccccc1 | 65 | 8.2 | – | 52 | –

SMILES | MRT [h] | Vd [L/kg] | clearance [mL/min/kg] | half-life [h] | fraction unbound
CN(C)CC(Oc1ccccc1)Oc1ccccc1 | 3.4 | 2.8 | 13.7 | 4.4 | –
NC(Cc1ccc(N(CCCl)CCCl)cc1)C(=O)O (stereo not given) | – | – | – | – | 0.14
Cc1ccc(Nc2nccc(N(C)c3ccc4c(C)n(C)nc4c3)n2)cc1S(N)(=O)=O | 44.4 | 0.16 | 0.06 | – | 0.01
CC(C)(C)S(=O)(=O)CC(Cc1ccccc1)C(=O)NC(Cc1c[nH]cn1)C(=O)N[C@@H](CC1CCCCC1)[C@@H](O)C(O)C1CC1 (stereo not given in full) | 1.1 | 0.77 | 11.6 | 5.2 | 0.0558
Nc1nc2[nH]cnc2c(=S)[nH]1 | 3.13 | 2.89 | 15.4 | 24.4 | –
Cc1ccc(-c2ncc(Cl)cc2-c2ccc(S(C)(=O)=O)cc2)cn1 | 32 | 1.5 | 0.79 | 26 | 0.081
CN(C)[C@@H]1C(O)=C(C(N)=O)C(=O)[C@@]2(O)C(O)=C3C(=O)c4c(O)c(NC(=O)CN5CCCC5)cc(F)c4C[C@H]3C[C@@H]12 | 10.3 | 2.3 | 3.71 | – | 0.18
CC1(C)S[C@@H]2C(NC(=O)C(NC(=O)NC(=N)N)c3ccccc3)C(=O)N2C1C(=O)O (stereo not given in full) | 2.5 | 0.24 | 1.6 | 2.09 | 0.8
CNC(=O)c1cnn(-c2nc(N)c3ncn([C@@H]4O[C@H](CO)[C@@H](O)[C@H]4O)c3n2)c1 | 2.1 | 0.94 | 7.3 | 2 | 0.7
O=C(O[C@H]1C[C@H]2CC3C[C@@H](C1)N2CC3=O)c1c[nH]c2ccccc12 | 0.19 | 2 | – | 0.13 | 0.49
CC1(C)[C@H]2CC[C@@]3(C)C(C(=O)C=C4C5C[C@](C)(C(=O)O)CC[C@@]5(C)CC[C@@]43C)[C@]2(C)CC[C@H]1O[C@H]1OC(C(=O)O)[C@@H](O)[C@H](O)[C@H]1O[C@@H]1OC(C(=O)O)[C@@H](O)[C@H](O)[C@H]1O (stereo not given in full) | 30.9 | 0.09 | 0.05 | 23.1 | –
O=C1CN=C(c2ccccn2)c2cc(Br)ccc2N1 | 28 | 0.85 | 0.51 | 21 | –
O=S(=O)(O)c1cc(O)ccc1O | 2.41 | 0.12 | 0.87 | 2.01 | –
CCOC(=O)C(CCc1ccccc1)NC(C)C(=O)N1Cc2cc(OC)c(OC)cc2CC1C(=O)O (stereo not given) | – | – | 6.3 | 1.3 | 0.12
CC(C1=C(CCN(C)C)Cc2ccccc21)c1ccccn1 (stereo not given) | 5.98 | 2.16 | 4.83 | 4.6 | –
C=CCN1CC[C@]23c4c5ccc(O)c4OC2C(=O)CC[C@@]3(O)[C@H]1C5 (stereo not given in full) | 1.2 | 1.7 | – | 1.1 | 0.54
CCN(CC)CCNC(=O)c1cc(Br)c(N)cc1OC | 4 | 3.1 | 13 | 2.9 | 0.6
CSCCC(N)C(=O)N[C@@]1(C(=O)O)CS(=O)(=O)[C@H]2C(C(=O)O)[C@H]21 (stereo not given in full) | 0.75 | 0.44 | 9.73 | 0.84 | –
CC[C@@]1(O)C[C@H](O[C@@H]2C[C@H](N3CCOCC3)[C@H](O)[C@H](C)O2)c2c(O)c3c(c(O)c2[C@H]1O)C(=O)c1cccc(O)c1C3=O | 8 | 20.9 | 42.8 | 10.7 | 0.09
C[C@H](/C=C/[C@H](C)C(C)(C)O)[C@H]1CC[C@H]2/C(=C/C=C3C[C@@H](O)C[C@H](O)C3)CCC[C@]12C | 7.7 | 0.41 | 0.89 | 5.3 | –
COc1cc2c(cc1OC)C(Cc1cc(OC)c(OC)c(OC)c1)[N+](C)(CCCOC(=O)CC/C=C/CCC(=O)OCCC[N+]1(C)CCc3cc(OC)c(OC)cc3C1Cc1cc(OC)c(OC)c(OC)c1)CC2 (stereo not given) | 0.87 | 0.27 | 5.2 | 0.83 | 0.7
